Patent EP0673649A1, “Pharmaceutical compositions for the prolonged release of trimetazidine after oral administration” (ADIR ET COMPAGNIE, priority 1994, dated 1995)

Legend:
[1] = plasticizer added at 20 % to Eudragit RS® film; measured with chlorhydrate de phénylpropanolamine; cited from earlier work
[2] = in vitro dissolution / release of trimetazidine dihydrochloride from reservoir forms; format: physicochemical; settings: release of trimetazidine dihydrochloride through a film containing this plasticizer (figure 1)
[3] = solubility in water of trimetazidine dihydrochloride; format: physicochemical; settings: read-out: solubilité du dichlorhydrate dans l'eau
Procedure: Le poids moléculaire de la trimétazidine sous forme de base est de 266,33 et la solubilité du dichlorhydrate dans l'eau supérieure à 1000 mg/ml. De ce fait, il était très difficile d'obtenir des comprimés matriciels contrôlant la libération du principe actif sur plus de 16 heures. Ce problème a été résolu par l'utilisation du système réservoir décrit dans la présente invention.

[4] = immediate-release oral forms; background statement; cited from earlier work

Compound	Perméabilité [1] [mg.cm⁻².h⁻¹]	temps de latence [2]	solubility [3] [mg/mL]	demi-vie plasmatique [4] [heures]
CCOC(=O)c1ccccc1C(=O)OCC [Diéthylphtalate]	14.8			
CC(=O)OCC(COC(C)=O)OC(C)=O [Triacétine]	6.2	très long qui peut atteindre quatre heures		
COc1ccc(CN2CCNCC2)c(OC)c1OC [dichlorhydrate de trimétazidine, 1-(2,3,4-triméthoxybenzyl)pipérazine]			> 1000	< 6
